Here are results for 4 compounds from paper PMC3879575, “Evidence That GH115 α-Glucuronidase Activity, Which Is Required to Degrade Plant Biomass, Is Dependent on Conformational Flexibility” (The Journal of Biological Chemistry, 2013).

One may read the Km as the concentration of substrate that gives half-maximal velocity. Usually stoichiometry N stands for the number of molecules, sites or subunits per partner or assembly.

The target in assay [1] is T1, BoAgu115A (BACOVA_03449) (Bacteroides ovatus, UniProt A0ABU3IS40).
T1 construct: mature form (signal peptide removed), N-terminal His6 tag (pET28a), E. coli BL21 DE3, 824 residues, 85 kDa, homodimer; modelled residues 33-856
Kind of assay: coupled alpha-D-glucuronidase assay kit, NADH at […] nm. The following applies: PC buffer (50 mM sodium phosphate, 12 mM citrate) pH 6.5, 1 mg/ml BSA, 37 °C. The class given is biochemical.

The target in assay [2] is BoAgu115A (BACOVA_03449), GH115 α-glucuronidase of Bacteroides ovatus (Bacteroides ovatus). Kind of assay: AUC; sedimentation velocity, interference optics, 48,000 rpm, 20 °C, sample volume 400 μl.
Assay [3] deals with T1, BoAgu115A (BACOVA_03449). Kind of assay: X-ray crystal structure, […] Å. The class given is binding. The following applies: crystals soaked with 300 mM GlcA; pH 5.5; active site; open-chain form.

`CO[C@H]1[C@H](O)[C@@H](O)[C@@H](O[C@H]2[C@H](O[C@@H]3CO[C@@H](O[C@@H]4COC(O)[C@H](O)[C@H]4O)[C@H](O)[C@H]3O)OC[C@@H](O[C@@H]3OC[C@@H](O)[C@H](O)[C@H]3O)[C@@H]2O)O[C@@H]1C(=O)O` (stereo partly shown) [XUXX]: the Km at BoAgu115A (BACOVA_03449) [1] stood at 4.5 mM.

Compound “BoAgu115A (BACOVA_03449), GH115 α-glucuronidase of Bacteroides ovatus (enzyme)” had a stoichiometry N in assay [2] of 2.

As to `O=C[C@H](O)[C@@H](O)[C@H](O)[C@H](O)C(=O)O` [GlcA], the “X-ray crystal structure, 2.14 Å” value at BoAgu115A (BACOVA_03449) [3] is on record as “BoAgu115A was co-crystallized with GlcA, which revealed electron density for the uronic acid”.

In the case of UXX, the Km on BoAgu115A (BACOVA_03449) [1] came out at 19.5 mM.
